Legend:
Test in all cases: relative viability (nuclei count vs DMSO), 5 days (fraction); higher = more cells survive
AZD8055 + Phenformin = compound: COc1ccc(-c2ccc3c(N4CCOC[C@@H]4C)nc(N4CCOC[C@@H]4C)nc3n2)cc1CO [AZD8055] + N=C(N)NC(=N)NCCc1ccccc1 [Phenformin] (partner 250 µM)
Procedure, shortened: (§1)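 Cells from lung cancer lines were seeded into 1536-well plates and, one day later, dosed by pin tool. Treatments were either a single drug or a fixed dose of an anchor drug with five library-drug doses (not always all listed) in √10 steps. After 5 days, nuclei were stained in a one-step fixation (final 0.05% Triton X-100, 1% formaldehyde, 1 ug/ml Hoechst) and counted on 4× images, and relative viability is the treated-to-vehicle nuclei ratio, as the median of duplicate plates.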

AZD8055 + Pemetrexed = compound: COc1ccc(-c2ccc3c(N4CCOC[C@@H]4C)nc(N4CCOC[C@@H]4C)nc3n2)cc1CO [AZD8055] + Nc1nc2[nH]cc(CCc3ccc(C(=O)N[C@@H](CCC(=O)O)C(=O)O)cc3)c2c(=O)[nH]1 [Pemetrexed] (partner 0.2 µM)
Procedure, shortened: as §1

AZD8055 + Trametinib = compound: COc1ccc(-c2ccc3c(N4CCOC[C@@H]4C)nc(N4CCOC[C@@H]4C)nc3n2)cc1CO [AZD8055] + CC(=O)Nc1cccc(-n2c(=O)n(C3CC3)c(=O)c3c(Nc4ccc(I)cc4F)n(C)c(=O)c(C)c32)c1 [Trametinib] (partner 0.02 µM)
Procedure, shortened: as §1

AZD8055 + Navitoclax = compound: COc1ccc(-c2ccc3c(N4CCOC[C@@H]4C)nc(N4CCOC[C@@H]4C)nc3n2)cc1CO [AZD8055] + CC1(C)CCC(c2ccc(Cl)cc2)=C(CN2CCN(c3ccc(C(=O)NS(=O)(=O)c4ccc(N[C@H](CCN5CCOCC5)CSc5ccccc5)c(S(=O)(=O)C(F)(F)F)c4)cc3)CC2)C1 [Navitoclax] (partner 0.5 µM)
Procedure, shortened: as §1

| Cell Line | relative viability (AZD8055 + Phenformin; first compound 0.01 µM) | relative viability (AZD8055 + Phenformin; first compound 0.03162 µM) | relative viability (AZD8055 + Phenformin; first compound 0.1 µM) | relative viability (AZD8055 + Phenformin; first compound 0.3162 µM) | relative viability (AZD8055 + Phenformin; first compound 1 µM) | relative viability (AZD8055 + Pemetrexed; first compound 0.01 µM) | relative viability (AZD8055 + Pemetrexed; first compound 0.03162 µM) | relative viability (AZD8055 + Pemetrexed; first compound 0.1 µM) | relative viability (AZD8055 + Pemetrexed; first compound 0.3162 µM) | relative viability (AZD8055 + Pemetrexed; first compound 1 µM) | relative viability (AZD8055 + Trametinib; first compound 0.01 µM) | relative viability (AZD8055 + Trametinib; first compound 0.03162 µM) | relative viability (AZD8055 + Trametinib; first compound 0.1 µM) | relative viability (AZD8055 + Trametinib; first compound 0.3162 µM) | relative viability (AZD8055 + Trametinib; first compound 1 µM) | relative viability (AZD8055 + Navitoclax; first compound 0.01 µM) | relative viability (AZD8055 + Navitoclax; first compound 0.03162 µM) | relative viability (AZD8055 + Navitoclax; first compound 0.1 µM) | relative viability (AZD8055 + Navitoclax; first compound 0.3162 µM) | relative viability (AZD8055 + Navitoclax; first compound 1 µM) |
| --- | --- | --- | --- | --- | --- | --- | --- | --- | --- | --- | --- | --- | --- | --- | --- | --- | --- | --- | --- | --- |
| NCI-H2087 | 0.555 | 0.41 | 0.422 | 0.242 | 0.232 | 0.646 | 0.587 | 0.588 | 0.427 | 0.292 | 0.248 | 0.166 | 0.169 | 0.153 | 0.116 | 0.911 | 0.951 | 0.703 | 0.421 | 0.309 |
| LU99A | 0.802 | 0.626 | 0.492 | 0.276 | 0.28 | 0.227 | 0.211 | 0.235 | 0.177 | 0.169 | 0.403 | 0.337 | 0.308 | 0.203 | 0.191 | 0.69 | 0.517 | 0.232 | 0.164 | 0.191 |
| NCI-H1355 | 0.442 | 0.396 | 0.344 | 0.286 | 0.28 | 1.06 | 0.91 | 0.772 | 0.316 | 0.235 | 0.379 | 0.321 | 0.29 | 0.211 | 0.211 | 0.959 | 0.736 | 0.382 | 0.21 | 0.21 |
| NCI-H520 | 0.467 | 0.219 | 0.211 | 0.158 | 0.156 | 0.636 | 0.307 | 0.245 | 0.182 | 0.144 | 0.581 | 0.246 | 0.267 | 0.109 | 0.137 | 0.928 | 0.612 | 0.359 | 0.21 | 0.176 |
| NCI-H661 | 0.245 | 0.262 | 0.287 | 0.248 | 0.261 | 1.02 | 0.882 | 0.868 | 0.579 | 0.418 | 0.518 | 0.426 | 0.451 | 0.31 | 0.325 | – | – | – | – | – |
| NCI-H650 | 0.473 | 0.378 | 0.429 | 0.305 | 0.302 | 0.981 | 0.691 | 0.843 | 0.371 | 0.299 | 1.13 | 1.09 | 0.888 | 0.469 | 0.353 | – | – | – | – | – |
| NCI-H647 | 0.564 | 0.412 | 0.331 | 0.14 | 0.15 | 0.207 | 0.155 | 0.133 | 0.166 | 0.122 | 0.538 | 0.345 | 0.322 | 0.136 | 0.127 | 1.35 | 1.03 | 0.637 | 0.391 | 0.219 |
| 201T | 0.473 | 0.438 | 0.422 | 0.318 | 0.314 | 0.312 | 0.317 | 0.359 | 0.293 | 0.293 | 0.7 | 0.689 | 0.629 | 0.519 | 0.492 | 1.22 | 1.23 | 1.21 | 1.03 | 0.819 |
| NCI-H838 | 0.553 | 0.362 | 0.354 | 0.233 | 0.218 | 0.228 | 0.236 | 0.231 | 0.18 | 0.201 | 0.499 | 0.335 | 0.279 | 0.19 | 0.201 | 0.985 | 0.627 | 0.347 | 0.358 | 0.305 |
| SW 1573 | 0.324 | 0.218 | 0.193 | 0.163 | 0.14 | 0.938 | 0.728 | 0.653 | 0.285 | 0.18 | 0.559 | 0.518 | 0.379 | 0.193 | 0.15 | 0.869 | 0.855 | 0.646 | 0.304 | 0.21 |
| PC-14 | 0.857 | 0.595 | 0.284 | 0.216 | 0.167 | 0.153 | 0.214 | 0.178 | 0.212 | 0.162 | 0.743 | 0.715 | 0.179 | 0.108 | 0.138 | 1.15 | 1.16 | 1.02 | 0.405 | 0.351 |
| LK-2 | 0.234 | 0.186 | 0.118 | 0.198 | 0.239 | 0.234 | 0.185 | 0.138 | 0.137 | 0.11 | 0.68 | 0.575 | 0.509 | 0.238 | 0.199 | 0.797 | 0.584 | 0.441 | 0.216 | 0.241 |
| COR-L23 | 0.485 | 0.373 | 0.341 | 0.213 | 0.157 | 0.204 | 0.194 | 0.186 | 0.177 | 0.178 | 0.512 | 0.528 | 0.334 | 0.127 | 0.157 | 1.01 | 0.732 | 0.468 | 0.229 | 0.172 |
| LCLC-103H | 0.307 | 0.291 | 0.268 | 0.206 | 0.224 | 0.499 | 0.438 | 0.54 | 0.49 | 0.392 | 0.628 | 0.636 | 0.469 | 0.456 | 0.425 | – | – | – | – | – |
| ABC-1 | 0.198 | 0.289 | 0.226 | 0.197 | 0.22 | – | – | – | – | – | – | – | – | – | – | – | – | – | – | – |
| NCI-H358 | 0.362 | 0.387 | 0.294 | 0.151 | 0.121 | 0.184 | 0.176 | 0.158 | 0.145 | 0.129 | 0.144 | 0.144 | 0.116 | 0.106 | 0.116 | – | – | – | – | – |
| NCI-H1563 | 0.632 | 0.66 | 0.617 | 0.656 | 0.641 | 0.735 | 0.577 | 0.602 | 0.563 | 0.471 | – | – | – | – | – | – | – | – | – | – |
| EBC-1 | – | – | – | – | – | – | – | – | – | – | – | – | – | – | – | 0.312 | 0.187 | 0.213 | 0.182 | 0.205 |
| Calu-6 | – | – | – | – | – | – | – | – | – | – | – | – | – | – | – | 0.886 | 0.792 | 0.621 | 0.32 | 0.313 |

Reference: the supplement of paper PMC10307832
